Source: PMC8880564, “Design, Synthesis, and Biological Evaluation of a Novel VEGFR-2 Inhibitor Based on a 1,2,5-Oxadiazole-2-Oxide Scaffold with MAPK Signaling Pathway Inhibition” (Pharmaceuticals, 2022)

Columns and labels:
Type in all cases: cell-based
[1] = tested on: NCI-59 human cancer cell lines; experiment: NCI-60 one-dose SRB screening, full panel and subpanels; conditions: Homo sapiens; for activity at 10 µM: mean over the full panel, 10 µM one dose, 48 h, SRB, read-out: growth percentage, Mean
Protocol: (§1) The structures of the synthesized compounds 6a–h, 12a–c, 11, 13a–c, and 14a–c were submitted to the National Cancer Institute’s Developmental Therapeutics Program (NCI-DTP), and all of them were selected for preliminary in vitro anticancer activity screening against NCI-59 human cancer cell lines at a concentration of 10 µM, using the sulforhodamine B (SRB) assay to determine the growth percentage and cell viability.
(§2) The in vitro NCI-60 cell line screening assay was conducted at the National Cancer Institute (NCI), Bethesda, USA against 59 cancer cell lines representing 9 types of cancers, as reported earlier. Briefly, the human cancer cell lines were grown in RPMI 1640 medium containing 5% fetal bovine serum and 2 mM L-glutamine and inoculated into 96-well microtiter plates in 100 μL (5000 to 40,000 cells/well). Then, the plates were incubated at 37 °C, 5% CO2, 95% air, and 100% relative humidity for 24 h. After that, two plates of each cell line were fixed in situ with TCA, to represent cell population at time zero (Tz). The tested compounds were dissolved in DMSO at 400-fold and added so that the final concentration became 10 μM. The plates were then incubated for an additional 48 h followed by the addition of cold TCA to terminate the assay in case of adherent cells. Then, the cells were fixed in situ by cold 50% (w/v) TCA (50 μL; final concentration, 10% TCA) and incubated for 1 h at 4 °C. After discarding the supernatant, the plates were washed 5 times with tap water and air dried. Sulforhodamine B (SRB) solution (100 μL) at 0.4% (w/v) in 1% HOAc was added to each well, and plates were incubated for 10 min. at rt. Then, washing with 1% acetic acid was conducted 5 times to remove the unbound dye followed by air drying. After that, 10 mM trizma base was added to solubilize the bound stain, and the absorbance was read on an automated plate reader at a wavelength of 515 nm. On the other hand, the methodology for suspension cells was the same except that 50 μL of 80% TCA (final concentration, 16% TCA) was gently added to terminate the assay by fixing settled cells at the bottom of the wells. Percentage growth inhibition (GI%) was calculated as follows:
(§3) Growth percentage=Ti (test growth in the presence of compound at 10 µM )−Tz (time zero)/C (control growth)−Tz (time zero)×100 for Ti ≥ Tz;
(§4) Growth percentage=Ti (test growth in the presence of compound at 10 µM )−Tz (time zero)/Tz (time zero)×100 for Ti < Tz.
(§5) where values of 100, 40, 0, −40, and −100 mean no GI, 60% GI, no net G, 40% lethality, and all cells are dead, respectively.
Data are expressed as a one-dose mean graph of growth percentages including the mean, delta, and range.

HOP-62 = experiment: NCI-60 one-dose SRB screening; conditions: Homo sapiens, HOP-62, Non-Small Cell Lung Cancer, 10 µM one dose, 48 h, read-out: growth percentage
Protocol: as §1, §2, §3, §4, §5

SF-539 = experiment: NCI-60 one-dose SRB screening; conditions: Homo sapiens, SF-539, CNS Cancer, 10 µM one dose, 48 h, read-out: growth percentage
Protocol: as §1, §2, §3, §4, §5

OVCAR-8 = experiment: NCI-60 one-dose SRB screening; conditions: Homo sapiens, OVCAR-8, Ovarian Cancer, 10 µM one dose, 48 h, read-out: growth percentage
Protocol: as §1, §2, §3, §4, §5

NCI-H460 = experiment: NCI-60 one-dose SRB screening; conditions: Homo sapiens, NCI-H460, Non-Small Cell Lung Cancer, 10 µM one dose, 48 h, read-out: growth percentage
Protocol: as §1, §2, §3, §4, §5

SNB-19 = experiment: NCI-60 one-dose SRB screening; conditions: Homo sapiens, SNB-19, CNS Cancer, 10 µM one dose, 48 h, read-out: growth percentage
Protocol: as §1, §2, §3, §4, §5

UACC-257 = experiment: NCI-60 one-dose SRB screening; conditions: Homo sapiens, UACC-257, Melanoma, 10 µM one dose, 48 h, read-out: growth percentage
Protocol: as §1, §2, §3, §4, §5

NCI-H322M = experiment: NCI-60 one-dose SRB screening; conditions: Homo sapiens, Non-Small Cell Lung Cancer, 10 µM one dose, 48 h, read-out: growth percentage
Protocol: as §1, §2, §3, §4, §5

U251 = experiment: NCI-60 one-dose SRB screening; conditions: Homo sapiens, U-251, U251, CNS Cancer, 10 µM one dose, 48 h, read-out: growth percentage
Protocol: as §1, §2, §3, §4, §5

HT29 = experiment: NCI-60 one-dose SRB screening; conditions: Homo sapiens, HT-29, HT29, Colon Cancer, 10 µM one dose, 48 h, read-out: growth percentage
Protocol: as §1, §2, §3, §4, §5

CAKI-1 = experiment: NCI-60 one-dose SRB screening; conditions: Homo sapiens, CAKI-1, Renal Cancer, 10 µM one dose, 48 h, read-out: growth percentage
Protocol: as §1, §2, §3, §4, §5

HCT-116 = experiment: NCI-60 one-dose SRB screening; conditions: Homo sapiens, HCT-116, Colon Cancer, 10 µM one dose, 48 h, read-out: growth percentage
Protocol: as §1, §2, §3, §4, §5

MCF7 = experiment: NCI-60 one-dose SRB screening; conditions: Homo sapiens, MCF7, Breast Cancer, 10 µM one dose, 48 h, read-out: growth percentage
Protocol: as §1, §2, §3, §4, §5

HS 578T = experiment: NCI-60 one-dose SRB screening; conditions: Homo sapiens, Breast Cancer, 10 µM one dose, 48 h, read-out: growth percentage
Protocol: as §1, §2, §3, §4, §5

NCI/ADR-RES = experiment: NCI-60 one-dose SRB screening; conditions: Homo sapiens, Ovarian Cancer, 10 µM one dose, 48 h, read-out: growth percentage
Protocol: as §1, §2, §3, §4, §5

HOP-92 = experiment: NCI-60 one-dose SRB screening; conditions: Homo sapiens, HOP-92, Non-Small Cell Lung Cancer, 10 µM one dose, 48 h, read-out: growth percentage
Protocol: as §1, §2, §3, §4, §5

SK-MEL-2 = experiment: NCI-60 one-dose SRB screening; conditions: Homo sapiens, SK-MEL-2, Melanoma, 10 µM one dose, 48 h, read-out: growth percentage
Protocol: as §1, §2, §3, §4, §5

RPMI-8226 = experiment: NCI-60 one-dose SRB screening; conditions: Homo sapiens, RPMI-8226, Leukemia, 10 µM one dose, 48 h, read-out: growth percentage
Protocol: as §1, §2, §3, §4, §5

SK-MEL-28 = experiment: NCI-60 one-dose SRB screening; conditions: Homo sapiens, SK-MEL-28, Melanoma, 10 µM one dose, 48 h, read-out: growth percentage
Protocol: as §1, §2, §3, §4, §5

SN12C = experiment: NCI-60 one-dose SRB screening; conditions: Homo sapiens, Renal Cancer, 10 µM one dose, 48 h, read-out: growth percentage
Protocol: as §1, §2, §3, §4, §5

A549/ATCC = experiment: NCI-60 one-dose SRB screening; conditions: Homo sapiens, Non-Small Cell Lung Cancer, 10 µM one dose, 48 h, read-out: growth percentage
Protocol: as §1, §2, §3, §4, §5

| SMILES | activity at 10 µM [1] | activity at 10 µM (HOP-62) | activity at 10 µM (SF-539) | activity at 10 µM (OVCAR-8) | activity at 10 µM (NCI-H460) | activity at 10 µM (SNB-19) | activity at 10 µM (UACC-257) | activity at 10 µM (NCI-H322M) | activity at 10 µM (U251) | activity at 10 µM (HT29) | activity at 10 µM (CAKI-1) | activity at 10 µM (HCT-116) | activity at 10 µM (MCF7) | activity at 10 µM (HS 578T) | activity at 10 µM (NCI/ADR-RES) | activity at 10 µM (HOP-92) | activity at 10 µM (SK-MEL-2) | activity at 10 µM (SK-MEL-28) | activity at 10 µM (SN12C) | activity at 10 µM (A549/ATCC) | also measured |
| --- | --- | --- | --- | --- | --- | --- | --- | --- | --- | --- | --- | --- | --- | --- | --- | --- | --- | --- | --- | --- | --- |
| Cc1nc(Nc2ccc(OCc3c(-c4ccccc4)no[n+]3[O-])cc2)c2c(C)nn(-c3ccc(Br)cc3)c2n1 [6h, 3-((4-((1-(4-bromophenyl)-3,6-dimethyl-1H-pyrazolo[3,4-d]pyrimidin-4-yl)amino)phenoxy)methyl)-4-phenyl-1,2,5-oxadiazole 2-oxide] | 95.4% | 104% | 96.1% | 102% | 100% | 94.5% | 99.8% | 94.4% | 96.4% | 90% | 83.8% | 71.5% | 87.4% | 94.8% | 102% | 94.6% | 96.9% | 101% | 96.4% | 96.4% | inhibition at 10 µM ([1]; full NCI-59 panel, 10 µM, read-out: mean growth inhibition % (MGI%, GI%)): 1.58 to 4.57%; activity at 10 µM (RPMI-8226): 90.6% |
| Nc1ccc(NCc2c(-c3ccccc3)no[n+]2[O-])cc1 [compound 11, 3-(((4-aminophenyl)amino)methyl)-4-phenyl-1,2,5-oxadiazole 2-oxide] | 107% | 136% | 104% | 131% | 101% | 110% | 99.2% | 103% | 102% | 111% | 108% | 98.4% | 85.5% | 109% | 104% | 116% | 105% | 101% | 109% | 95.1% | activity at 10 µM (RPMI-8226): 97.5% |
| Cc1nn(-c2ccc(Br)cc2)c2nc(C(F)(F)F)nc(Nc3ccc(NCc4c(-c5ccccc5)no[n+]4[O-])cc3)c12 [12c, 3-(((4-((1-(4-bromophenyl)-3-methyl-6-(trifluoromethyl)-1H-pyrazolo[3,4-d]pyrimidin-4-yl)amino)phenyl)amino)methyl)-4-phenyl-1,2,5-oxadiazole 2-oxide] | 74.8% | 68.3% | 59.4% | 75.8% | 46.6% | 84.1% | 95.7% | 85.1% | 54.1% | 70.4% | 55% | 31.9% | 68.2% | 83.2% | 88.8% | 82.3% | 104% | 89.5% | 76.2% | 82.4% | activity at 10 µM (RPMI-8226): 91.1% |
| Cc1nn(-c2ccccc2)c2nc(C(F)(F)F)nc(Nc3ccc(NCc4c(-c5ccccc5)no[n+]4[O-])cc3)c12 [12a, 3-(((4-((3-methyl-1-phenyl-6-(trifluoromethyl)-1H-pyrazolo[3,4-d]pyrimidin-4-yl)amino)phenyl)amino)methyl)-4-phenyl-1,2,5-oxadiazole 2-oxide] | 76.8% | 93.1% | 78.1% | 89.7% | 53% | 88% | 103% | 77.6% | 69.9% | 61.5% | 53% | 41.1% | 58.5% | 77.9% | 83% | 90.1% | 106% | 92.4% | 77.7% | 76.6% | activity at 10 µM (RPMI-8226): 83.4% |
| Cc1nn(-c2ccccc2)c2nc(CCl)[nH]c(=O)c12 [13b] | 82.8% | 98.3% | 36.9% | 112% | 102% | 89.4% | 98.8% | 103% | 93.9% | 106% | 99.6% | 24.9% | 16.4% | 120% | 102% | 117% | 97.9% | 105% | 95.7% | 97.7% |  |
